Measured values as given in patent US20060235013A1, “Tricyclic azole derivatives” (priority 2005, published 2006).
pIC50: −log10 of the molar value.

Assays:
[1] = test system: HCT 116 cells; assay: Viability assay in HCT 116 cells (CellTiter-Glo Luminescent Cell Viability Assay); type: cell-based; settings: HCT 116 human colon carcinoma cells, 5 days (120 h) incubation, ATP luminescence
Description: Viability Assay in HCT 116 Cells
A viability assay was performed using the CellTiter-Glo® Luminescent Cell Viability Assay (see Promega Corporation's Technical Bulletin No. 288, pp. 1-11 [revised February 2004] which is hereby incorporated by reference in its entirety). This assay is a homogeneous method of determining the number of viable cells in culture based on quantitation of the ATP present, an indicator of metabolically active cells. The assay is designed for use with multiwell formats, making it ideal for automated high-throughput screening (HTS), cell proliferation and cytotoxicity assays. The homogenous assay procedure involves adding a single reagent (containing luciferase, luciferan substrate, and buffer) directly to cells cultured in serum-supplemented medium. Cell washing, removal of medium and multiple pipetting steps are not required. The system detects as few as 15 cells/well in a 384-well format in 10 minutes after adding reagent and mixing.
The homogeneous “add-mix-measure” format results in cell lysis and generation of a luminescent signal proportional to the amount of ATP present. The amount of ATP is directly proportional to the number of cells present in culture. The above-referenced assay generates a “glow-type” luminescent signal, produced by the luciferase reaction, which has a half-life generally greater than five hours, depending on cell type and medium used. The extended half-life eliminates the need to use reagent injectors and provides flexibility for continuous or batch mode processing of multiple plates. The unique homogeneous format avoids errors that may be introduced by other ATP measurement methods that require multiple steps.
HCT 116 cells (human colon carcinoma, ATCC-No. CCl-247) were cultivated in RPMI 1640 medium with GlutaMAX™ I (cell culture media that contains L-Alanyl-L-Glutamine [a stabilized a form/source of L-Glutamine] from Invitrogen, Cat-No. 61870-010), 2.5% Fetal Calf Serum (FCS, Sigma Cat-No. F4135 (FBS)); 100 Units/ml penicillin/100 μg/ml streptomycin (=Pen/Strep from Invitrogen Cat. No. 15140). For the assay the cells were seeded in 384 well plates, 1000 cells per well, in the same medium. The next day the test compounds were added in various concentrations ranging from 30 μM to 0.0015 μM (10 concentrations, 1:3 diluted). After 5 days the viability assay was done according to the instructions of the manufacturer. In brief: the cell-plate was equilibrated to room temperature for approximately 30 minutes and then reagent (containing luciferase, luciferan substrate, and buffer) was added. The contents were carefully mixed for 15 minutes to induce cell lysis. After 45 minutes the luminescent signal was measured in Victor 2, (scanning multiwell spectrophotometer, Wallac).
Medium: RPMI 1640 with cell culture media containing L-Alanyl-L-Glutamine [GlutaMAX™ I (Invitrogen, Cat-No. 61870)], 5% FCS (Sigma Cat.-No. F4135), Pen/Strep (Invitrogen, Cat No. 15140).
HCT116 (ATCC-No. CCl-247): 1000 cells in 60 μl per well of 384 well plate (Greiner 781098, μClear-plate white)
After seeding incubate plates 24 h at 37° C., 5% CO2
2nd. Day: Induction (Treatment with Compounds, 10 Concentrations):
In order to achieve a final concentration of 30 μM as highest concentration 3.5 μl of 10 mM compound stock solution were added directly to 163 μl media. Then step (d) of the dilution procedure described below, was followed.
In order to achieve the second highest to the lowest concentrations, a serial dilution with dilution steps of 1:3 was followed according to the procedure (a-d) as described here below:
(a) for the second highest concentration add 10 μl of 10 mM stock solution of compound to 20 μl dimethylsulfoxide (DMSO)
(b) dilute 8×1:3 (always 10 μl to 20 μl DMSO) in this DMSO dilution row (results in 9 wells with concentrations from 3333.3 μM to 0.51 μM)
(c) dilute each concentration 1: 47.6 (3.5 μl compound dilution to 163 μl media)
(d) add 10 μl of every concentration to 60 μl media in the cell plate […]

[2] = target: T1, Aurora A kinase (Homo sapiens, UniProt O14965); assay: IC50 determination for inhibitors of Aurora A (ELISA-type kinase assay, GST-Histone H3 substrate); type: biochemical; settings: mutant Aurora A kinase, 30 μM ATP, 40 minutes, read-out: IC50 Aurora A kinase inhibition
T1 sequence (O14965 1-403): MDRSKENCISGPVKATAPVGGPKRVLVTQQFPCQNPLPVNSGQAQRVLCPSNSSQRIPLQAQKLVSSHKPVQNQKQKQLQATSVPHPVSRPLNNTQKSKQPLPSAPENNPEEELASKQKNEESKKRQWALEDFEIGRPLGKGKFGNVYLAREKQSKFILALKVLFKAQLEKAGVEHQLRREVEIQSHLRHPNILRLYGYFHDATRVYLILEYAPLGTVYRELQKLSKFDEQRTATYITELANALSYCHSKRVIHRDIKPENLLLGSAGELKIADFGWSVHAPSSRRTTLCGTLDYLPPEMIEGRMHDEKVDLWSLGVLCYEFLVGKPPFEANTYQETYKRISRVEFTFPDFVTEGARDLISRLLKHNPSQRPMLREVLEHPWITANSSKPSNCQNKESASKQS
Description: IC50 Determination for Inhibitors of Aurora A
Aurora A is a serine threonine kinase involved in spindle assembly and chromosome segregation.
The assay is a typically ELISA-type assay where substrate (GST-Histone H3) is coupled to the assay-plate and is phosphorylated by the kinase. Phosphorylation is detected by a mouse anti-Phosphopeptid mAb and an HRP-labeled anti-mouse pAb. The assay is validated for IC50-determination.
Kinase activities were measured by Enzyme-Linked Immunosorbent Assay (ELISA): Maxisorp 384-well plates (Nunc) were coated with recombinant fusion protein comprising residues 1-15 of HistoneH3 fused to the N-terminus of Glutathione-S-Transferase. Plates were then blocked with a solution of 1 mg/mL I-block (a highly purified form of casein, Tropix cat. no. T2015) in phosphate-buffered saline. Kinase reactions were carried out in the wells of the ELISA plate by combining an appropriate amount of mutant Aurora A kinase with test compound and 30 μM ATP. The reaction buffer was 10× Kinase Buffer (Cell Signaling cat. no. 9802) supplemented with 1 μg/mL I-block. Reactions were stopped after 40 minutes by addition of 25 mM EDTA. After washing, substrate phosphorylation was detected by addition of anti-phospho-Histone H3 (Ser 10) 6G3 mAb (Cell Signaling cat. no. 9706) and sheep anti-mouse pAb-HRP (Amersham cat. no. NA931V), followed by colorimetric development with TMB (3,3′,5,5′-tetramethylbenzidine from Kirkegaard & Perry Laboratories). After readout of the adsorbance, IC50 values were calculated using a non-linear curve fit (XLfit software (ID Business Solution Ltd., Guilford, Surrey, UK)).

| SMILES | pIC50 [1] | pIC50 [2] |
| --- | --- | --- |
| CC1(C)C(=O)Nc2cc3[nH]c(-c4n[nH]c5c4CCC5)nc3cc21 [Example 1, 7,7-Dimethyl-2-(1,4,5,6-tetrahydro-cyclopentapyrazol-3-yl)-5,7-dihydro-3H-imidazo[4,5-f]indol-6-one] | 5.70 to 7.00 | – |
| CN1C(=O)C(C)(C)c2cc3nc(-c4n[nH]c5c4CCC5)[nH]c3cc21 [Example 2, 5,7,7-Trimethyl-2-(1,4,5,6-tetrahydro-cyclopentapyrazol-3-yl)-5,7-dihydro-3H-imidazo[4,5-f]indol-6-one] | 6.37 | – |
| CCN1C(=O)C(C)(C)c2cc3nc(-c4n[nH]c5c4CCC5)[nH]c3cc21 [Example 3, 5-Ethyl-7,7-dimethyl-2-(1,4,5,6-tetrahydro-cyclopentapyrazol-3-yl)-5,7-dihydro-3H-imidazo[4,5-f]indol-6-one] | 5.70 to 7.00 | – |
| CCCN1C(=O)C(C)(C)c2cc3nc(-c4n[nH]c5c4CCC5)[nH]c3cc21 [Example 4, 7,7-Dimethyl-5-propyl-2-(1,4,5,6-tetrahydro-cyclopentapyrazol-3-yl)-5,7-dihydro-3H-imidazo[4,5-f]indol-6-one] | 6.65 | – |
| CC(C)N1C(=O)C(C)(C)c2cc3nc(-c4n[nH]c5c4CCC5)[nH]c3cc21 [Example 5, 5-Isopropyl-7,7-dimethyl-2-(1,4,5,6-tetrahydro-cyclopentapyrazol-3-yl)-5,7-dihydro-3H-imidazo[4,5-f]indol-6-one] | – | 7.77 |
| CC1(C)C(=O)N(CCCN2CCOCC2)c2cc3[nH]c(-c4n[nH]c5c4CCC5)nc3cc21 [Example 6, 7,7-Dimethyl-5-(3-morpholin-4-yl-propyl)-2-(1,4,5,6-tetrahydro-cyclopentapyrazol-3-yl)-5,7-dihydro-3H-imidazo[4,5-f]indol-6-one] | 6.17 | – |
| CC1(C)C(=O)Nc2cc3[nH]c(-c4n[nH]c5c4CCCC5)nc3cc21 [Example 7, 7,7-Dimethyl-2-(4,5,6,7-tetrahydro-1H-indazol-3-yl)-5,7-dihydro-3H-imidazo[4,5-f]indol-6-one] | 5.70 to 7.00 | – |
| CCN1C(=O)C(C)(C)c2cc3nc(-c4n[nH]c5c4CCCC5)[nH]c3cc21 [Example 8, 5-Ethyl-7,7-dimethyl-2-(4,5,6,7-tetrahydro-1H-indazol-3-yl)-5,7-dihydro-3H-imidazo[4,5-f]indol-6-one] | 5.70 to 7.00 | – |
| CC(C)N1C(=O)C(C)(C)c2cc3nc(-c4n[nH]c5c4CCCC5)[nH]c3cc21 [Example 9, 5-Isopropyl-7,7-dimethyl-2-(4,5,6,7-tetrahydro-1H-indazol-3-yl)-5,7-dihydro-3H-imidazo[4,5-f]indol-6-one] | 6.97 | 7.92 |
| CCN1C(=O)C(C)(C)c2cc3nc(-c4n[nH]c5c4CN(Cc4ccccc4)CC5)[nH]c3cc21 [Example 13, 2-(5-Benzyl-4,5,6,7-tetrahydro-1H-pyrazolo[4,3-c]pyridin-3-yl)-5-ethyl-7,7-dimethyl-5,7-dihydro-3H-imidazo[4,5-f]indol-6-one] | 5.70 to 7.00 | – |
| CCN1C(=O)C(C)(C)c2cc3nc(-c4n[nH]c5c4CN(C(=O)Cc4ccc(F)cc4)CC5)[nH]c3cc21 [Example 15, 5-Ethyl-2-{5-[2-(4-fluoro-phenyl)-acetyl]-4,5,6,7-tetrahydro-1H-pyrazolo[4,3-c]pyridin-3-yl}-7,7-dimethyl-5,7-dihydro-3H-imidazo[4,5-f]indol-6-one] | 5.82 | – |
| CCN1C(=O)C(C)(C)c2cc3nc(-c4n[nH]c5c4CN(C(=O)N4CCOCC4)CC5)[nH]c3cc21 [Example 18, 5-Ethyl-7,7-dimethyl-2-[5-(morpholine-4-carbonyl)-4,5,6,7-tetrahydro-1H-pyrazolo[4,3-c]pyridin-3-yl]-5,7-dihydro-3H-imidazo[4,5-f]indol-6-one] | 5.70 to 7.00 | – |
| CCc1cccc(CC)c1NC(=O)N1Cc2[nH]nc(-c3nc4cc5c(cc4[nH]3)N(C(C)C)C(=O)C5(C)C)c2C1 [Example 21, 3-(5-Isopropyl-7,7-dimethyl-6-oxo-3,5,6,7-tetrahydro-imidazo[4,5-f]indol-2-yl)-4,6-dihydro-1H-pyrrolo[3,4-c]pyrazole-5-carboxylic acid (2,6-diethyl-phenyl)-amide] | 5.70 to 7.00 | – |
| CCN1C(=O)C(C)(C)c2cc3nc(-c4n[nH]c5c4CN(C(=O)Cc4cccs4)C5)[nH]c3cc21 [Example 23, 5-Ethyl-7,7-dimethyl-2-[5-(2-thiophen-2-yl-acetyl)-1,4,5,6-tetrahydro-pyrrolo[3,4-c]pyrazol-3-yl]-5,7-dihydro-3H-imidazo[4,5-f]indol-6-one] | 5.70 to 7.00 | – |
| CC(C)N1C(=O)C(C)(C)c2cc3nc(-c4n[nH]c5c4CN(C(=O)Cc4cccs4)C5)[nH]c3cc21 [Example 24, 5-Isopropyl-7,7-dimethyl-2-[5-(2-thiophen-2-yl-acetyl)-1,4,5,6-tetrahydro-pyrrolo[3,4-c]pyrazol-3-yl]-5,7-dihydro-3H-imidazo[4,5-f]indol-6-one] | 6.13 | – |
| CCN1C(=O)C(C)(C)c2cc3nc(-c4n[nH]c5c4CN(S(=O)(=O)c4ccc(F)cc4)C5)[nH]c3cc21 [Example 25, 5-Ethyl-2-[5-(4-fluoro-benzenesulfonyl)-1,4,5,6-tetrahydro-pyrrolo[3,4-c]pyrazol-3-yl]-7,7-dimethyl-5,7-dihydro-3H-imidazo[4,5-f]indol-6-one] | 5.70 to 7.00 | – |
| CCN1C(=O)C(C)(C)c2cc3nc(-c4n[nH]c5c4CSCC5)[nH]c3cc21 [Example 26, 5-Ethyl-7,7-dimethyl-2-(1,4,6,7-tetrahydro-thiopyrano[4,3-c]pyrazol-3-yl)-5,7-dihydro-3H-imidazo[4,5-f]indol-6-one] | 5.70 to 7.00 | – |
| CC(C)N1C(=O)C(C)(C)c2cc3nc(-c4n[nH]c5c4CSC5)[nH]c3cc21 [Example 28, 2-(4,6-Dihydro-1H-thieno[3,4-c]pyrazol-3-yl)-5-isopropyl-7,7-dimethyl-5,7-dihydro-3H-imidazo[4,5-f]indol-6-one] | 6.47 | – |
